We go through seven molecules from patent publication US4761483A, “Chloro-substituted ketone imidazole derivatives” (G. D. Searle & Co., priority 1985, dated 1988).

SMILES strings stand for the structures. Converted amounts (≈) assume the structure as drawn. Where a name gives a salt, the structure may show the parent alone.

The subject of one experiment is B. fragilis NCTC 10581. The experiment is described as follows: anti-anaerobic activity, MIC/MBC in 96 well microtitre plates, strain A. It counts as cell-based, Bacteroides fragilis. Particulars: Bacteroides fragilis, NCTC10581, 48 h, strain A; for MBC: 99.9% reduction in viable count after 48 hours, read-out: MBC (Minimum Bactericidal Concentration); for MIC: 48 hours at 37° C., anaerobic chamber, 10^5 cells/ml, read-out: MIC (Minimum Inhibitory Concentration).

For the next experiment, the system named is B. fragilis NCTC 9343. The experiment is described as follows: anti-anaerobic activity, MIC/MBC in 96 well microtitre plates, strain B. In kind it is cell-based, Bacteroides fragilis. Conditions: Bacteroides fragilis, strain B; for MIC: NCTC9343, 48 h, 48 hours at 37° C., anaerobic chamber, 10^5 cells/ml, read-out: MIC (Minimum Inhibitory Concentration); for MBC: NCTC9343, 99.9% reduction in viable count after 48 hours, read-out: MBC (Minimum Bactericidal Concentration).

The subject of the next experiment is B. fragilis NCTC 9344. The experiment is described as follows: anti-anaerobic activity, MIC/MBC in 96 well microtitre plates, strain C. Particulars: Bacteroides fragilis, NCTC9344, 48 h, strain C; for MBC: 99.9% reduction in viable count after 48 hours, read-out: MBC (Minimum Bactericidal Concentration); for MIC: 48 hours at 37° C., anaerobic chamber, 10^5 cells/ml, read-out: MIC (Minimum Inhibitory Concentration). It counts as cell-based, Bacteroides fragilis.

The subject of experiment [1] is B. fragilis MZ-R ATCC 11295. Description: anti-anaerobic activity, MIC/MBC in 96 well microtitre plates, strain D. In kind it is cell-based, Bacteroides fragilis. Conditions: Bacteroides fragilis, ATCC11295, 48 h; for MBC: 99.9% reduction in viable count after 48 hours, read-out: MBC (Minimum Bactericidal Concentration); for MIC: 48 hours at 37° C., anaerobic chamber, 10^5 cells/ml, read-out: MIC (Minimum Inhibitory Concentration). How it is done:
The screening panel utilized in the Example consisted of 5 strains of Bacteroides fragilis. All assays were carried out in 96 well microtitre plates. If an isolate was obtained from either a culture collection or clinical source, the isolate was immediately innoculated into Wilkens-Chalgren broth (Oxoid) and incubated at 37° C. in an anaerobic chamber in an atmosphere of 85% nitrogen, 10% carbon dioxide, and 5% hydrogen for 48 hours. At the end of this time, the viable count was about […] broth. A 1 ml aliquot of each culture was placed in an ampoule and quick frozen in acetone-dry ice mixture and stored in liquid nitrogen. When an inoculum was utilized in an assay, one of the ampoules was thawed and diluted with fresh broth to yield a suspension having a count of 5×10^5 organisms/ml. A 100 μl aliquot of the suspension was inoculated into each well of the microtitre plate. A 2 mg sample of the test compound wa dissolved in 0.2 ml of a suitable solvent such as dimethylsulfoxide, polyethylene glycol 200 or methanol. The solution was then diluted with 4.8 ml of water to yield a solution having a concentration of 400 mg/L. Doubling dilutions of this stock were prepared to give a range of concentrations from 1.6-200 mg/L. 100 μl of each concentration were then placed in the wells of the microtitre plate containing the inoculum, to produce a final concentration range of 0.8-100 mg/l. Metronidazole was employed as a positive control and a solvent/water mixture was employed as a negative control. After addition of the test solution the final inoculum level was 10^5 cells/ml. The plates were incubated for 48 hours at 37° C. in the anaerobic chamber. The Minimum Inhibitory Concentration (MIC) was read visually. The MIC is defined as the lowest concentration at which there is no detectable growth. The Minimum Bactericidal Concentration (MBC) was determined by taking a 50 μl aliquot from each well and placing it in fresh medium. […] The strains of Bacteroides fragilis utilized in the above procedure are identified by letter in accordance with the following legend: |D B. fragilis MZ-R ATCC 11295

For another experiment, the system named is B. fragilis WS-1. Description: anti-anaerobic activity, MIC/MBC in 96 well microtitre plates, strain E. In kind it is cell-based. Conditions: Bacteroides fragilis, strain E; for MIC: WS1, 48 h, 48 hours at 37° C., anaerobic chamber, 10^5 cells/ml, read-out: MIC (Minimum Inhibitory Concentration); for MBC: WS1, 99.9% reduction in viable count after 48 hours, read-out: MBC (Minimum Bactericidal Concentration).

In experiment [2] the test system is Clostridium perfringens NCTC 523. The experiment is described as follows: microbe, parasite or virus in culture. It counts as cell-based. Particulars: NCTC523.
In experiment [3] the test system is Clostridium perfringens NCTC 8237. The experiment is described as follows: microbe, parasite or virus in culture. In kind it is cell-based. Particulars: NCTC8237.
In experiment [4] the test system is Campylobacter fetus ATCC 29428. Description: anti-anaerobic activity, MIC (procedures of Example 13). Conditions: ATCC29428, procedures of Example 13 (there mg/L). In kind it is cell-based.
For experiment [5], the system named is Fusobacterium necrophorum ATCC 11295. The experiment is described as above. Conditions: ATCC11295, procedures of Example 13 (there mg/L). It counts as cell-based.
Experiment [6] has as its system Peptococcus magnus ATCC 29328. Described as above. In kind it is cell-based. Particulars: Finegoldia magna, ATCC29328; Peptococcus magnus ATCC 29328; procedures of Example 13 (there mg/L); read-out: MIC.
Experiment [7] has as its system Peptococcus prevotti ATCC 9321. The description is as above. In kind it is cell-based. Conditions: Peptococcus prevotti ATCC 9321; procedures of Example 13 (there mg/L); read-out: MIC.
Experiment [8] relates to Peptostreptococcus anaerobicus ATCC 27337. The description is as above. In kind it is cell-based. Conditions: ATCC27337; Peptostreptococcus anaerobicus ATCC 27337; procedures of Example 13 (there mg/L); read-out: MIC.
The subject of experiment [9] is Propionibacterium acnes NCTC 737. The experiment is described as above. It counts as cell-based. Particulars: Cutibacterium acnes, NCTC737, procedures of Example 13 (there mg/L).
Experiment [10] concerns Propionibacterium acnes NCTC 7337. The description is as above. Conditions: Cutibacterium acnes, NCTC7337, procedures of Example 13 (there mg/L). In kind it is cell-based.

`O=C(c1ccc(Cl)cc1Cl)C(Cl)(Cn1ccnc1)c1ccccc1` (stereo not shown) [Example 4, 2-Chloro-1-(2,4-dichlorophenyl)-3-(imidazol-1-yl)-2-phenylpropan-1-one]: the MBC stood at 6.2 µg/mL (≈ 16.3 µM) with B. fragilis NCTC 10581; 6.2 µg/mL (≈ 16.3 µM) in the experiment on B. fragilis NCTC 9343; 12.5 µg/mL (≈ 32.9 µM) in the experiment with B. fragilis NCTC 9344; 3.1 µg/mL (≈ 8.16 µM) in experiment [1]; 6.2 µg/mL (≈ 16.3 µM) with B. fragilis WS-1. Further, the MIC (in the experiment on B. fragilis NCTC 10581; in the experiment with B. fragilis NCTC 9343; in the experiment on B. fragilis NCTC 9344; in experiment [1]; in the experiment with B. fragilis WS-1; in experiment [2]) was 0.8 µg/mL (≈ 2.11 µM) each time. In addition, the MIC in [3], in experiment [4], in experiment [5], in [6], in experiment [7] and in experiment [8] was 0.8 µg/mL (≈ 2.11 µM) each time. The MIC in [9] and in experiment [10] was 0.8 µg/mL (≈ 2.11 µM) each time.
Regarding `COC(=O)CCc1cn(CC(Cl)(C(=O)c2ccc(Cl)cc2Cl)c2ccccc2)cn1` (stereo not shown) [Example 5, 3-[1-[2-Chloro-3-(2,4-dichlorophenyl)-3-oxo-2-phenylpropyl]-imidazol-4-yl]propanoic acid methyl ester], the MBC in the experiment on B. fragilis NCTC 10581 came out at 1.5 µg/mL (≈ 3.22 µM); in the experiment on B. fragilis NCTC 9343, 1.5 µg/mL (≈ 3.22 µM); in the experiment on B. fragilis NCTC 9344, 1.5 µg/mL (≈ 3.22 µM); in experiment [1], 0.8 µg/mL (≈ 1.72 µM); in the experiment with B. fragilis WS-1, 3.1 µg/mL (≈ 6.66 µM). Also, the MIC in the experiment on B. fragilis NCTC 10581 was determined as 1.5 µg/mL (≈ 3.22 µM); in the experiment with B. fragilis NCTC 9343 it was 1.5 µg/mL (≈ 3.22 µM); with B. fragilis NCTC 9344 it was 1.5 µg/mL (≈ 3.22 µM); in experiment [1], 0.8 µg/mL (≈ 1.72 µM); in the experiment on B. fragilis WS-1, 3.1 µg/mL (≈ 6.66 µM).
In the case of `O=C(O)/C=C/c1cn(CC(Cl)(C(=O)c2ccc(Cl)cc2Cl)c2ccccc2)cn1` (stereo not shown) [Example 6, E-3-[1-[2-Chloro-3-(2,4-dichlorophenyl)-3-oxo-2-phenylpropyl]imidazol-1-yl]propenoic acid hydrochloride], the MBC is 0.8 µg/mL with B. fragilis NCTC 10581; 3.1 µg/mL in the experiment with B. fragilis NCTC 9343; 0.8 µg/mL in the experiment with B. fragilis NCTC 9344; 0.8 µg/mL in experiment [1]; 3.1 µg/mL in the experiment with B. fragilis WS-1. The MIC in the experiment with B. fragilis NCTC 10581 amounted to 0.8 µg/mL; in the experiment with B. fragilis NCTC 9343, 1.5 µg/mL; with B. fragilis NCTC 9344, 0.8 µg/mL; in experiment [1], 0.8 µg/mL; in the experiment with B. fragilis WS-1 it was 3.1 µg/mL.
In the case of `N[C@@H](Cc1cn(CC(Cl)(C(=O)c2ccc(Cl)cc2Cl)c2ccccc2)cn1)C(=O)O` (stereo partly drawn) [Example 8, 1-[2-Chloro-3-(2,4-dichlorophenyl)-3-oxo-2-phenylpropyl]-L-histidine], the MBC in the experiment with B. fragilis NCTC 10581 amounted to 0.8 µg/mL (≈ 1.71 µM); in the experiment on B. fragilis NCTC 9343, 0.8 µg/mL (≈ 1.71 µM); in the experiment on B. fragilis NCTC 9344, 0.8 µg/mL (≈ 1.71 µM); in [1], 0.8 µg/mL (≈ 1.71 µM); with B. fragilis WS-1, 3.1 µg/mL (≈ 6.64 µM). Further, the MIC amounted to 0.8 µg/mL (≈ 1.71 µM) in the experiment with B. fragilis NCTC 10581; 0.8 µg/mL (≈ 1.71 µM) with B. fragilis NCTC 9343; 0.8 µg/mL (≈ 1.71 µM) in the experiment on B. fragilis NCTC 9344; 0.8 µg/mL (≈ 1.71 µM) in experiment [1]; 3.1 µg/mL (≈ 6.64 µM) in the experiment on B. fragilis WS-1.
Consider `C[C@H](NC(=O)[C@H](Cc1cn(CC(Cl)(C(=O)c2ccc(Cl)cc2Cl)c2ccccc2)cn1)NC(=O)OC(C)(C)C)C(=O)OC(C)(C)C` (stereo partly drawn) [Example 9, N-[1-[2-Chloro-3-(2,4-dichlorophenyl)-3-oxo-2-phenylpropyl]-N-[(1,1-dimethylethoxy)carbonyl]-L-histidyl]-L-alanine 1,1-dimethylethyl ester], for which the MBC with B. fragilis NCTC 10581 was found to be 6.2 µg/mL (≈ 8.93 µM); in the experiment on B. fragilis NCTC 9343, 3.1 µg/mL (≈ 4.47 µM); in the experiment on B. fragilis NCTC 9344, 6.2 µg/mL (≈ 8.93 µM); in [1], 0.8 µg/mL (≈ 1.15 µM); in the experiment on B. fragilis WS-1 it was 12.5 µg/mL (≈ 18 µM). Further, the MIC was found to be 3.1 µg/mL (≈ 4.47 µM) in the experiment on B. fragilis NCTC 10581; 3.1 µg/mL (≈ 4.47 µM) in the experiment with B. fragilis NCTC 9343; 6.2 µg/mL (≈ 8.93 µM) with B. fragilis NCTC 9344; 0.8 µg/mL (≈ 1.15 µM) in experiment [1]; 12.5 µg/mL (≈ 18 µM) in the experiment on B. fragilis WS-1.
Regarding `C[C@H](NC(=O)[C@@H](N)Cc1cn(CC(Cl)(C(=O)c2ccc(Cl)cc2Cl)c2ccccc2)cn1)C(=O)O` (stereo partly drawn) [Example 10, N-[1-[2-Chloro-3-(2,4-dichlorophenyl)-3-oxo-2-phenylpropyl]-L-histidyl]-L-alanine], the MBC in the experiment with B. fragilis NCTC 10581 came out at 3.1 µg/mL (≈ 5.76 µM); in the experiment with B. fragilis NCTC 9343, 3.1 µg/mL (≈ 5.76 µM); with B. fragilis NCTC 9344, 6.2 µg/mL (≈ 11.5 µM); in [1], 0.8 µg/mL (≈ 1.49 µM); with B. fragilis WS-1, 6.2 µg/mL (≈ 11.5 µM). In addition, the MIC with B. fragilis NCTC 10581 worked out at 3.1 µg/mL (≈ 5.76 µM); in the experiment on B. fragilis NCTC 9343, 3.1 µg/mL (≈ 5.76 µM); with B. fragilis NCTC 9344 it was 3.1 µg/mL (≈ 5.76 µM); in experiment [1] it was 0.8 µg/mL (≈ 1.49 µM); with B. fragilis WS-1, 6.2 µg/mL (≈ 11.5 µM).
In the case of `C[C@H](NC(=O)[C@@H](N)CCCCNC(=O)/C=C/c1cn(CC(Cl)(C(=O)c2ccc(Cl)cc2Cl)c2ccccc2)cn1)C(=O)O` (stereo partly drawn) [Example 12, N-[N^6-[E-3-[1-[2-Chloro-3-(2,4-dichlorophenyl)-3-oxo-2-phenylpropyl]imidazol-4-yl]propenoyl]-L-lysinyl]-L-alanine], the MBC in the experiment on B. fragilis NCTC 10581 came out at 3.1 µg/mL (≈ 4.78 µM); in the experiment with B. fragilis NCTC 9343, 1.5 µg/mL (≈ 2.31 µM); in the experiment on B. fragilis NCTC 9344, 3.1 µg/mL (≈ 4.78 µM); in experiment [1], 0.8 µg/mL (≈ 1.23 µM); with B. fragilis WS-1, 6.2 µg/mL (≈ 9.55 µM). Moreover, the MIC in the experiment on B. fragilis NCTC 10581 stood at 1.5 µg/mL (≈ 2.31 µM); in the experiment on B. fragilis NCTC 9343, 1.5 µg/mL (≈ 2.31 µM); in the experiment on B. fragilis NCTC 9344 it was 3.1 µg/mL (≈ 4.78 µM); in experiment [1], 0.8 µg/mL (≈ 1.23 µM); with B. fragilis WS-1, 6.2 µg/mL (≈ 9.55 µM).
